Test [1] concerns primary human T-cells. The experiment in a line: IL2 secretion measurements in CD3-stimulated T-cells. The format is cell-based. Conditions: CD3 condition; for Emax IL2 (% activation): 24 hours, 20 μM reference compound A1 = 100%; for EC50: Homo sapiens, T-cell, IL2 secretion after 24 hours, read-out: Tcell IL2 CD3 EC50. Here is the method: As readouts for T-cell activation, 1L2 secretion after 24 hours and proliferation after 5 days was measured. Increases in 1L2 secretion and proliferation upon compound treatment were assessed as the % of the maximum of reference compound A1. WO 2016/139181 discloses reference compound A1 as example 70. As a counter screen and to make sure that no unwanted TCR-independent activation was triggered, PBS conditions were run for all compounds.
Expanded primary human T-cells were thawed and cultured in RPMI 1640 (Gibco, #61870-010)+5% human serum (HS, Sigma, #H3667)+1 mM Sodium Pyruvate (Gibco, #11360-039)+50 μM 2-mercaptoethanol (Gibco, #31350-010) and 1× Pen-Strep (Life Technologies, #15140122) medium at density of 2 Mio/ml for 3 hours in 5% CO2, 37° C. and 95% humidity. For coating of plates, […] or PBS++ with CD3 antibody (concentration depending on donor and determined by CD3 titrations) was added 100 μl/well to Poly-D Lysine coated 96-well plates. Plates were sealed and incubated at room temperature for 3 hours on a table-top rocking platform. After incubation, plates were washed once with PBS−− and filled with 40 μl/well culture medium only. Compounds were then added (see next section) to medium only plates. After 3 hours of culturing the T-cells, cells were filtered through a cell strainer (Miltenyi Biotech, #130-041-407), counted again and concentration was adjusted to 1.25 Mio/ml.
Cells were then seeded 80 μl/well to the 40 μl/well including dispensed compounds according to plate layout. By adding cells, compounds were further diluted 1:3, and resulting in 100 k cells/120 μl/well. After 24 hours 40 μl of supernatant was collected carefully from the top while not disturbing the cells and transferred into a round bottom 96 well plate. Collected and frozen supernatant was used for detection of IL2 using the IL-2 Human ProQuantum Immunoassay Kit (Invitrogen) or using the Human IL-2 ELISA Kit (Thermo Fisher).
Compounds were added in a 5 or 6 pt dose response with the Tecan D300e Digital Dispenser, all conditions 3 times more concentrated than the end-concentration, since cells are added afterwards (80 μl cells to 40 μl prepared medium with treatment). The DR was starting at 20 μM or 10 μM final top concentration and a dilution factor of 3.333. The positive control was the reference compound A1 that was added in a dose response as well, additionally to 3 wells of only 20 μM representing the positive stimulator control. All wells were normalized with DMSO to a final concentration of 0.6% (0.2% end-concentration).
The immunoassay is done following the manufacturer's manual (Invitrogen, #A35603). Additional information: For the immunoassay, MicroAmp™ EnduraPlate™ Optical 384-Well plates are used. Frozen supernatant is thawed and centrifuged for 5 minutes at 1000×g, both steps at 4° C. After centrifugation, required sample amount is taken from the top, and in a separate LightCycler V-bottom plate (working plate) diluted with assay dilution buffer, dilution factor depending on the PBS or CD3 condition but at least 1:3. IL-2 standard and blanks are prepared in the same V-bottom plate, standard with a range of […] (extended version). After preparation, 5 μl of sample dilutions or standard/blanks are transferred to the optical 384-well plate (assay plate) and the 10 μl reaction protocol is being followed. For measurement, the QuantStudio 12K Flex system is used. Raw data is extracted and IL-2 concentrations are calculated with the Thermo Fisher online app (apps.thermofisher.com/apps/proquantum).
ELISA is done following the manufacturer's manual (Thermo Fisher Scientific, #88-7025-88). Additional information: For the ELISA Nunc MaxiSorp 96 well plates are used. Frozen supernatant is thawed and centrifuged for 5 minutes at 1000×g, both steps at 4° C. […]

Test [2] concerns primary human T-cells. The experiment in a line: T-cell proliferation assay (CellTiter-Glo). Type of test: cell-based. Conditions: Homo sapiens, T-cell, 120 h; CD3 condition, proliferation after 5 days, CellTiter-Glo; read-out: Tcell Proliferation CD3 EC50. Here is the method:
For coating of plates, PBS++ only or PBS++ with CD3 antibody (concentration depending on donor and determined by CD3 titrations) is added 100 μl/well to Poly-D Lysine coated 96-well plates. Plates are sealed and incubated at room temperature for 3 hours on a table-top rocking platform. After incubation, plates are washed once with PBS−− and filled with 40 μl/well culture medium only. Compounds are then added (see next section) to medium only plates. After 3 hours of culturing the T-cells, cells are filtered through a cell strainer (Miltenyi Biotech, #130-041-407), counted again and concentration is adjusted to 1.25 Mio/ml.
Cells are then seeded 80 μl/well to the 40 μl/well including dispensed compounds according to plate layout. By adding cells, compounds are further diluted 1:3, and resulting in 100 k cells/120 μl/well. After 48 hours 40 μl of supernatant is collected carefully from the top while not disturbing the cells. Cells are assessed for proliferation 5 days later by measuring […] using CellTiterGlo (Promega).
Compounds were added in a 5 or 6 pt dose response with the Tecan D300e Digital Dispenser, all conditions 3 times more concentrated than the end-concentration, since cells are added afterwards (80 μl cells to 40 μl prepared medium with treatment). […] The positive control was the reference compound A1 that was added in a dose response as well, additionally to 3 wells of only 20 μM representing the positive stimulator control. All wells were normalized with DMSO to a final concentration of 0.6% (0.2% end-concentration).
After 5 days, for detection of ATP which is directly proportional to the number of cells present per well, the CellTiter-Glo® 2.0 Reagent is used. After visual control for toxicity or precipitations of the tested compounds, the plates are equilibrated to room temperature for 45 minutes. CellTiter-Glo® 2.0 Reagent is equilibrated to room temperature as well. After equilibration, an equal amount of CellTiter-Glo reagent is added to the cells (80 μl/well) with an electronic multichannel pipette. Plates are placed on a rocking platform for 15 minutes at room temperature. After incubation, the bottom of the plates is sealed with backing tape. Luminescence is measured with PHERAstar FSX (interval time 0.5 sec, gain 3000, focal height 15 mm) and exported as CSV file for analysis in Genedata screener.
Calculations and Data Reporting CD3 and PBS plates were analysed separately in Genedata Screener using Roche Normalization PCT_POS_CTRL with DMSO set as Neutral Control and 20 μM of the reference compound A1 set as Stimulator Control/100%.
For CD3 conditions EC50 and Emax of the fitted sigmoidal curve were reported. If no curve could be fitted, the EC50 was reported as blank field and the Emax was based on individual data points. […] Compounds which activate unstimulated cells (see IL2 measurements) or compounds which negatively affected viability were flagged.
On the technique in general: ATP-based viability assays read luminescence as a measure of living cells.

Consider `COc1cc(-c2cc3c(cc2F)S(=O)(=O)C[C@H](N)C(=O)N3Cc2ccc(Cl)cc2)cnn1` [Example 6, (3R)-3-amino-5-[(4-chlorophenyl)methyl]-8-fluoro-7-(6-methoxypyridazin-4-yl)-1,1-dioxo-2,3-dihydro-1λ6,5-benzothiazepin-4-one], for which, in the test with primary human T-cells [1], the “Emax IL2 (% activation)” value is listed as 14 % activation and the EC50 was above 10000 nM. Further, the EC50 in the test with primary human T-cells [2] was determined as 1410 nM.
`Cc1ncc(-c2cc3c(cc2F)S(=O)(=O)C[C@H](N)C(=O)N3Cc2ccc(Cl)cc2)cc1C(C)(C)C` [Example 16, (3R)-3-amino-7-(5-tert-butyl-6-methyl-3-pyridyl)-5-[(4-chlorophenyl)methyl]-8-fluoro-1,1-dioxo-2,3-dihydro-1λ6,5-benzothiazepin-4-one]: in the test with primary human T-cells [1], the “Emax IL2 (% activation)” value was determined as 87 % activation and the EC50 turned out to be 1110 nM. Further, the EC50 with primary human T-cells [2] was found to be 36 nM.
Take `CCN(CC)c1cnnc(-c2cc3c(cc2F)S(=O)(=O)C[C@H](N)C(=O)N3Cc2ccc(Cl)cc2)n1` [Example 15, (3R)-3-amino-5-[(4-chlorophenyl)methyl]-7-[5-(diethylamino)-1,2,4-triazin-3-yl]-8-fluoro-1,1-dioxo-2,3-dihydro-1λ6,5-benzothiazepin-4-one]: in the test with primary human T-cells [1], the “Emax IL2 (% activation)” value amounted to 79 % activation and the EC50 stood at 1650 nM. Also, the EC50 with primary human T-cells [2] turned out to be 1710 nM.
As to `CC(C)(C)c1ccnc(-c2cc3c(cc2F)S(=O)(=O)C[C@H](N)C(=O)N3Cc2ccc(Cl)cc2)c1` [Example 1, (3R)-3-amino-7-(4-tert-butyl-2-pyridyl)-5-[(4-chlorophenyl)methyl]-8-fluoro-1,1-dioxo-2,3-dihydro-1λ6,5-benzothiazepin-4-one], in the test with primary human T-cells [1], the “Emax IL2 (% activation)” value stood at 56 % activation and the EC50 was found to be 7380 nM. In the test on primary human T-cells [2], the EC50 was determined as 1720 nM.
Turning to `COc1cncc(-c2cc3c(cc2F)S(=O)(=O)C[C@H](N)C(=O)N3Cc2ccc(Cl)cc2)c1` [Example 26, (3R)-3-amino-5-[(4-chlorophenyl)methyl]-8-fluoro-7-(5-methoxy-3-pyridyl)-1,1-dioxo-2,3-dihydro-1λ6,5-benzothiazepin-4-one], in the test on primary human T-cells [1], the “Emax IL2 (% activation)” value is 29 % activation and the EC50 was above 10000 nM. The EC50 with primary human T-cells [2] was 416 nM.
`CC(C)(C)c1cc(-c2cc3c(cc2F)S(=O)(=O)C[C@H](N)C(=O)N3Cc2ccc(Cl)cc2)ccn1` [Example 3, (3R)-3-amino-7-(2-tert-butyl-4-pyridyl)-5-[(4-chlorophenyl)methyl]-8-fluoro-1,1-dioxo-2,3-dihydro-1λ6,5-benzothiazepin-4-one]: in the test with primary human T-cells [1], the “Emax IL2 (% activation)” value was determined as 56 % activation and the EC50 stood at 829 nM. Also, the EC50 in the test with primary human T-cells [2] worked out at 1510 nM.
On to `Cc1nnc(-c2cc3c(cc2F)S(=O)(=O)C[C@H](N)C(=O)N3Cc2ccc(Cl)cc2)nc1-c1ccccc1` [Example 13, (3R)-3-amino-5-[(4-chlorophenyl)methyl]-8-fluoro-7-(6-methyl-5-phenyl-1,2,4-triazin-3-yl)-1,1-dioxo-2,3-dihydro-1λ6,5-benzothiazepin-4-one], for which, in the test on primary human T-cells [1], the “Emax IL2 (% activation)” value came out at 48 % activation and the EC50 was above 10000 nM. Besides, the EC50 in the test with primary human T-cells [2] was 3640 nM.
`N[C@H]1CS(=O)(=O)c2cc(F)c(-c3nccc(C(F)(F)F)n3)cc2N(Cc2ccc(Cl)cc2)C1=O` [Example 10, (3R)-3-amino-5-[(4-chlorophenyl)methyl]-8-fluoro-1,1-dioxo-7-[4-(trifluoromethyl)pyrimidin-2-yl]-2,3-dihydro-1λ6,5-benzothiazepin-4-one]: in the test on primary human T-cells [1], the “Emax IL2 (% activation)” value amounted to 44 % activation and the EC50 amounted to 1820 nM. Also, the EC50 in the test with primary human T-cells [2] turned out to be 3570 nM.
`CC(C)(C)c1cc(-c2cc3c(cc2F)S(=O)(=O)C[C@H](N)C(=O)N3Cc2ccc(Cl)cc2)ncn1` [Example 4, (3R)-3-amino-7-(6-tert-butylpyrimidin-4-yl)-5-[(4-chlorophenyl)methyl]-8-fluoro-1,1-dioxo-2,3-dihydro-1λ6,5-benzothiazepin-4-one]: in the test with primary human T-cells [1], the “Emax IL2 (% activation)” value turned out to be 81 % activation and the EC50 is 2240 nM. Moreover, in the test on primary human T-cells [2], the EC50 was 408 nM.

These data come from patent US20250236617A1, “BICYCLIC TETRAHYDROTHIAZEPINE DERIVATIVES” (Hoffmann-La Roche Inc., priority 2022, published 2025).
